Article PMC10255569, “Discovery of Peptidic Ligands against the SARS-CoV-2 Spike Protein and Their Use in the Development of a Highly Sensitive Personal Use Colorimetric COVID-19 Biosensor” (ACS Sensors, 2023)
Entries after “also recorded” stand apart in the source; their conditions may differ. Non-standard residues stand in square brackets, D forms with d. Residues, ends and D or L forms follow the SMILES beside them. *: point of attachment. Biotin = O=C1N[C@H]2[C@H](CS[C@H]2CCCCC(=O)*)N1; Phe(3,5-F2) = N[C@@H](Cc1cc(F)cc(F)c1)C(=O)O; hCit = NC(=O)NCCCC[C@H](N)C(=O)O; Aad = N[C@@H](CCCC(=O)O)C(=O)O; Nva = CCC[C@H](N)C(=O)O; AEEA = NCCOCCOCC(=O)O

Target: Delta-variant SARS-CoV-2 spike protein receptor-binding domain (L452R, T478K) (Severe acute respiratory syndrome coronavirus 2, UniProt P0DTC2, L452R/T478K)
Parameters: species or system SARS-CoV-2 Delta variant

## CCC[C@H](NC(=O)[C@H](CCCCNC(N)=O)NC(=O)[C@H](CCCNC(=N)N)NC(=O)[C@H](Cc1ccc(OC)cc1)NC(=O)[C@H](N)Cc1c[nH]cn1)C(=O)N[C@@H](CCCNC(=N)N)C(=O)N[C@@H](Cc1cc(F)cc(F)c1)C(=O)N[C@@H](Cc1ccccc1)C(=O)N[C@@H](CCCC(=O)O)C(=O)NCCOCCOCC(=O)NCCOCCOCC(=O)N[C@@H](CCCCNC(=O)CCCC[C@@H]1SC[C@@H]2NC(=O)N[C@@H]21)C(N)=O [L10-2] (H-[dH]Y(Me)R[hCit][Nva]R[Phe(3,5-F2)]F[Aad][AEEA][AEEA]K(Biotin)-NH2)
  RMax: 0.11 ± 0.004
  binding to the Delta variant of spike protein RBD (in words): able to bind to the Delta variant of spike protein RBD with similar affinity; also recorded: can bind to S-protein from the SARS-CoV-2 Delta variant
